Assay results from patent US20260200905A1, “MICROBIOCIDAL TETRAHYDROISOQUINOLINE DERIVATIVES” (SYNGENTA CROP PROTECTION AG, priority 2022, published 2026).

Key:
[1] = test system: Mycosphaerella arachidis (Cercospora arachidicola); experiment: Mycosphaerella arachidis (Cercospora arachidicola) / liquid culture (early leaf spot); format: cell-based; details: growth inhibition photometrically 4 to 5 days after application, read-out: control of Mycosphaerella arachidis
Protocol: (§1) Example B6: Mycosphaerella arachidis (Cercospora arachidicola)/Liquid Culture (Early Leaf Spot) Conidia of the fungus from cryogenic storage are directly mixed into nutrient broth (PDB potato dextrose broth). After placing a (DMSO) solution of test compound into a microtiter plate (96-well format), the nutrient broth containing the fungal spores is added. The test plates are incubated at 24° C. and the inhibition of growth is determined photometrically 4 to 5 days after application.

[2] = test system: Monographella nivalis (Microdochium nivale); experiment: Monographella nivalis (Microdochium nivale) / liquid culture (foot rot cereals); format: cell-based; details: growth inhibition photometrically 4 to 5 days after application, read-out: control of Monographella nivalis
Protocol: as §1, with “B5: Monographella nivalis (Microdochium nivale)/Liquid” for “B6: Mycosphaerella arachidis (Cercospora arachidicola)/Liquid”, “(Foot Rot Cereals)” for “(Early Leaf Spot)”

[3] = test system: Mycosphaerella graminicola (Septoria tritici); experiment: Mycosphaerella graminicola (Septoria tritici) / liquid culture (Septoria blotch); format: cell-based; details: Zymoseptoria tritici, growth inhibition photometrically 4 to 5 days after application, read-out: control of Mycosphaerella graminicola
Protocol: as §1, with “B12:” for “B6:”, “graminicola (Septoria tritici)/Liquid” for “arachidis (Cercospora arachidicola)/Liquid”, “(Septoria Blotch)” for “(Early Leaf Spot)”

[4] = test system: Pyrenophora teres; experiment: Pyrenophora teres / barley / leaf disc preventative (net blotch); format: in vivo; details: 200 ppm, compared to untreated control
Protocol: Example B9: Pyrenophora teres/Barley/Leaf Disc Preventative (Net Blotch) Barley leaf segments cv. Hasso are placed on agar in a multiwell plate (24-well format) and sprayed with the formulated test compound diluted in water. The leaf segments are inoculated with a spore suspension of the fungus 2 days after application. The inoculated leaf segments are incubated at 20° C. and 65% rh under a light regime of 12 h light/12 h darkness in a climate cabinet and the activity of a compound is assessed as disease control compared to untreated when an appropriate level of disease damage appears in untreated check leaf segments (5 to 7 days after application).

[5] = test system: Puccinia recondita f. sp. tritici; experiment: Puccinia recondita f. sp. tritici / wheat / leaf disc curative (brown rust); format: in vivo; details: 200 ppm, applied 1 day after inoculation
Protocol: Example B7: Puccinia recondita f. Sp. Tritici/Wheat/Leaf Disc Curative (Brown Rust) Wheat leaf segments cv. Kanzler are placed on agar in multiwell plates (24-well format). The leaf segments are inoculated with a spore suspension of the fungus. Plates are stored in darkness at 19° C. and 75% rh. The formulated test compound diluted in water is applied 1 day after inoculation. The leaf segments are incubated at 19° C. and 75% rh under a light regime of 12 h light/12 h darkness in a climate cabinet and the activity of a compound is assessed as percent disease control compared to untreated when an appropriate level of disease damage appears in untreated check leaf segments (6 to 8 days after application).

[6] = test system: Phaeosphaeria nodorum (Septoria nodorum); experiment: Phaeosphaeria nodorum (Septoria nodorum) / wheat / leaf disc preventative (glume blotch); format: in vivo; details: 200 ppm, compared to untreated control
Protocol: Example B4: Phaeosphaeria Nodorum (Septoria nodorum)/Wheat/Leaf Disc Preventative (Glume Blotch) Wheat leaf segments cv. Kanzler are placed on agar in a multiwell plate (24-well format) and sprayed with the formulated test compound diluted in water. The leaf disks are inoculated with a spore suspension of the fungus 2 days after application. The inoculated test leaf disks are incubated at 20° C. and 75% rh under a light regime of 12 h light/12 h darkness in a climate cabinet and the activity of a compound is assessed as percent disease control compared to untreated when an appropriate level of disease damage appears in untreated check leaf disks (5 to 7 days after application).

[7] = test system: Thanatephorus cucumeris (Rhizoctonia solani); experiment: Thanatephorus cucumeris (Rhizoctonia solani) / liquid culture (foot rot, damping-off); format: cell-based; details: 20 ppm, growth inhibition photometrically 3 to 4 days after application
Protocol: Example B11: Thanatephorus cucumeris (Rhizoctonia solani)/Liquid Culture (Foot Rot, Damping-Off) Mycelia fragments of a newly grown liquid culture of the fungus are directly mixed into nutrient broth (PDB potato dextrose broth). After placing a (DMSO) solution of the test compounds into a microtiter plate (96-well format), the nutrient broth containing the fungal material is added. The test plates are incubated at 24° C. and the inhibition of growth is determined photometrically 3 to 4 days after application.

[8] = test system: Pythium ultimum; experiment: Pythium ultimum / liquid culture (seedling damping off); format: cell-based; details: 20 ppm, growth inhibition photometrically 2 to 3 days after application
Protocol: Example B10: Pythium ultimum/Liquid Culture (Seedling Damping Off) Mycelia fragments and oospores of a newly grown liquid culture of the fungus are directly mixed into nutrient broth (PDB potato dextrose broth). After placing a (DMSO) solution of test compound into a microtiter plate (96-well format), the nutrient broth containing the fungal mycelia/spore mixture is added. The test plates are incubated at 24° C. and the inhibition of growth is determined photometrically 2 to 3 days after application.

SMILES | inhibition of growth at 20 ppm [1] [%] | inhibition of growth at 20 ppm [2] [%] | inhibition of growth at 20 ppm [3] [%] | control of Pyrenophora teres [4] | control of Puccinia recondita f sp. tritici [5] | control of Phaeosphaeria nodorum [6] | control of Thanatephorus cucumeris [7] | control of Pythium ultimum [8]
O=C(c1cc(-c2ccc(F)cc2F)on1)N1Cc2ccccc2C(c2cnccn2)C1 (centres unmarked) [Compound P-8, [5-(2,4-difluorophenyl)isoxazol-3-yl]-(4-pyrazin-2-yl-3,4-dihydro-1H-isoquinolin-2-yl]methanone] | ≥ 80 | ≥ 80 | ≥ 80 | – | – | – | – | –
O=C(c1cc(-c2ccc(F)cc2F)on1)N1Cc2c(F)cccc2C(c2cccnc2)C1 (centres unmarked) [Compound P-1, [5-(2,4-difluorophenyl)isoxazol-3-yl]-[8-fluoro-4-(3-pyridyl)-3,4-dihydro-1H-isoquinolin-2-yl]methanone] | ≥ 80 | ≥ 80 | ≥ 80 | at least 80% | – | – | – | –
O=C(c1cc(-c2ccc(F)cc2F)on1)N1Cc2ccccc2C(c2cncnc2)C1 (centres unmarked) [Compound P-4, [5-(2,4-difluorophenyl)isoxazol-3-yl]-(4-pyrimidin-5-yl-3,4-dihydro-1H-isoquinolin-2-yl)methanone] | ≥ 80 | ≥ 80 | ≥ 80 | – | – | – | – | –
Cc1c(C2CN(C(=O)c3cc(-c4ccc(F)cc4F)no3)Cc3ccccc32)cc(C#N)n1C (centres unmarked) [Compound P-19, 4-[2-[3-(2,4-difluorophenyl)isoxazole-5-carbonyl]-3,4-dihydro-1H-isoquinolin-4-yl]-1,5-dimethyl-pyrrole-2-carbonitrile] | – | – | ≥ 80 | – | at least 80% | – | – | –
Cn1nc(C2CN(C(=O)c3cc(-c4ccc(F)cc4F)on3)Cc3ccccc32)cc1Cl (centres unmarked) [Compound P-7, [4-(5-chloro-1-methyl-pyrazol-3-yl)-3,4-dihydro-1H-isoquinolin-2-yl]-[5-(2,4-difluorophenyl)isoxazol-3-yl]methanone] | ≥ 80 | ≥ 80 | ≥ 80 | – | – | at least 80% | – | –
O=C(c1cc(-c2ccc(F)cc2F)on1)N1Cc2ccccc2C(c2ccncc2)C1 (centres unmarked) [Compound P-2, [5-(2,4-difluorophenyl)isoxazol-3-yl]-4-[4-(4-pyridyl)-3,4-dihydro-1H-isoquinolin-2-yl]methanone] | – | ≥ 80 | ≥ 80 | – | – | – | at least 80% | at least 80%
O=C(c1cc(-c2ccccc2)on1)N1Cc2ccccc2C(c2cccnc2)C1 (centres unmarked) [Compound P-6, (5-phenylisoxazol-3-yl)-[4-(3-pyridyl)-3,4-dihydro-1H-isoquinolin-2-yl]methanone] | ≥ 80 | ≥ 80 | ≥ 80 | – | – | – | – | –
Cc1ccc(C2CN(C(=O)c3cc(-c4ccc(F)cc4F)on3)Cc3ccccc32)cn1 (centres unmarked) [Compound P-3, [5-(2,4-difluorophenyl)isoxazol-3-yl]-[4-(6-methyl-3-pyridyl)-3,4-dihydro-1H-isoquinolin-2-yl]methanone] | ≥ 80 | ≥ 80 | ≥ 80 | – | – | – | – | –
